Assay results published in patent US4435404A, “Carbostyril derivatives” (priority 1980, dated 1984).
Read-outs that look alike come from different tables or passages of the source.

Experiments:
[1] = system: ADP-induced aggregation in rabbit platelet; assay: Inhibition effect on ADP-induced aggregation in rabbit platelet; format: cell-based; conditions: for inhibition at 100 µM / inhibition at 10 µM / inhibition at 1 µM / inhibition at 0.1 µM: Oryctolagus cuniculus, Platelet; for inhibition at 10 µM / inhibition at 1 µM / inhibition at 0.1 µM: read-out: Inhibition effect on ADP-induced aggregation; for inhibition at 0.1 µM: concentration of the test compound solution 10^-7 mole
Protocol: (§1) The platelet aggregation inhibitory effect is measured by using AG-II aggregometer (manufactured by Bryston Manufacturing Co.). The blood sample used for the test is a 1/9 (by volume) mixture of sodium citrate and whole blood collected from rabbit. Said sample is subjected to 10-minute centrifugal separation at 1,000 r.p.m. to obtain a platelet rich plasma (PRP). The thus obtained PRP is separated, and the remaining blood sample is further subjected to 15-minute centrifugal separation at 3,000 r.p.m. to obtain a platelet poor plasma (PPP).
(§2) The number of platelets in the PRP is counted by the Brecher-Clonkite Method, and the PRP is diluted with the PPP to prepare a PRP sample with platelet concentration of 300,000/mm^3 for the adenosine diphosphate (ADP)-induced aggregation test. There is also prepared a PRP sample with platelet concentration of 450,000/mm^3 for the collagen-induced aggregation test.
(§3) 0.6 Milliliter of said PRP sample is added into 0.01 ml of a solution of a test compound of a predetermined concentration and the mixture is placed in a 37° C. thermostat for one minute. Then 0.07 ml of an ADP or collagen solution is added to the mixture. Transmittance of this mixture is determined and the change of transmittance is recorded by using the aggregometer at stirrer speed of 1,100 r.p.m. […] The ADP solution is adjusted to a concentration of 7.5×10^-5 M, and the collagen solution is prepared by triturating 100 mg of collagen with 5 ml of said buffer and the supernatant is used as collagen inducer. Acetylsalicylic acid is used as control for the ADP-induced aggregation test and the collagen-induced aggregation test, respectively. The platelet aggregation inhibitory effect is measured in terms of percent inhibition with respect to the aggregation rate of the controls. The aggregation rate is calculated from the following formula:
(§4) Aggregation rate=[(c-a)/(b-a)]×100
(§5) b: transmittance of PRP containing a test compound and an aggregation inducer

[2] = system: collagen-induced aggregation in rabbit platelet; assay: Inhibition effect on collagen-induced aggregation in rabbit platelet; format: cell-based; conditions: for inhibition at 10 µM / inhibition at 1 µM / inhibition at 100 µM / inhibition at 0.1 µM: Oryctolagus cuniculus, Platelet, read-out: Inhibition effect on collagen-induced aggregation
Protocol: as §1, §2, §3, §4, §5

Acute Toxicity Test = conditions: mouse, in vivo; male mice, oral administration
Protocol: The test compounds were administered orally to the mice and LD50 (mg/kg) of the compounds was determined.

[3] = concentration of the test compound solution 10^-4 mole
[4] = concentration of the test compound solution 10^-5 mole
[5] = concentration of the test compound solution 10^-6 mole
[6] = concentration of the test compound solution 10^-7 mole

SMILES | inhibition at 100 µM [1, 3] | inhibition at 10 µM [1, 4] | inhibition at 1 µM [1, 5] | inhibition at 10 µM [2, 4] | inhibition at 1 µM [2, 5] | LD50 (Acute Toxicity Test) | also measured
O=C1CCc2cc(OCCCCC(=O)N(CCCCO)CC3CCCCC3)ccc2N1 [No. 8, 6-{4-[N-(4-Hydroxybutyl)-N-cyclohexylmethylaminocarbonyl]butoxy}-3,4-dihydrocarbostyril] | 100% | 72.1% | 12.2% | 100% | 10.2% | > 1000 mg/kg | –
CC(=O)Oc1ccccc1C(=O)O [No. 69, Aspirin, reference compound] | – | – | – | – | – | – | inhibition at 1 µM [2]: 7%; inhibition at 10 µM [2]: 9%; inhibition at 100 µM [2]: 65%
COCCN(C(=O)CCCCOc1ccc2[nH]c(=O)ccc2c1)C1CCCCC1 [No. 23, 6-{4-[N-(2-Methoxyethyl)-N-cyclohexylaminocarbonyl]butoxy}carbostyril] | 100% | 100% | 91.9% | 100% | 90.5% | > 1000 mg/kg | inhibition at 0.1 µM [1]: 40.4%; inhibition at 0.1 µM [2, 6]: 67%
O=C1CCc2cc(OCCCC(=O)N3CCN(c4ccccc4)CC3)ccc2N1 [No. 17, 6-[3-(4-Phenyl-1-piperazinylcarbonyl)propoxy]-3,4-dihydrocarbostyril] | 100% | 25.1% | 4.3% | 37.8% | 3.4% | > 1000 mg/kg | –
CCC(O)CN(C(=O)CCCCOc1ccc2[nH]c(=O)ccc2c1)C1CCCCCCC1 (centres unmarked) [No. 9, 6-{4-[N-(2-Hydroxybutyl)-N-cyclooctylaminocarbonyl]butoxy}carbostyril] | 100% | 84.9% | 40.1% | 100% | 100% | > 1000 mg/kg | inhibition at 0.1 µM [1]: 5.6%; inhibition at 0.1 µM [2, 6]: 43.2%
O=C1CCc2cc(OCCCC(=O)Nc3c(Cl)cccc3Cl)ccc2N1 [No. 44, 6-[3-(o,o-Dichloroanilinocarbonyl)propoxy]-3,4-dihydrocarbostyril, reference compound] | 36.8% | 5.3% | – | 27.6% | – | – | inhibition at 100 µM [2, 3]: 95.1%
O=C1CCc2cc(OCCCCC(=O)N(CCO)c3ccccc3)ccc2N1 [No. 11, 6-{4-[N-(2-Hydroxyethyl)-N-phenylaminocarbonyl]butoxy}-3,4-dihydrocarbostyril] | 100% | 49.5% | 22.4% | 100% | 33.9% | > 1000 mg/kg | –
CC(C)NC(=O)CCOc1ccc2c(c1)CCC(=O)N2 [No. 64, 6-(N--Isopropylaminocarbonylethoxy)-3,4-dihydrocarbostyril, reference compound] | – | – | – | – | – | – | Inhibition effect on ADP-induced aggregation [1, 3]: 18%; Inhibition effect on ADP-induced aggregation [1, 4]: 13%; Inhibition effect on ADP-induced aggregation [1, 5]: 7%; Inhibition effect on collagen-induced aggregation [2, 3]: 17%; Inhibition effect on collagen-induced aggregation [2, 5]: 0%; Inhibition effect on collagen-induced aggregation [2, 6]: 0%
COc1ccc(CCN(CCO)C(=O)CCCCOc2ccc3[nH]c(=O)ccc3c2)cc1OC [No. 20, 6-{4-[N-(2-Hydroxyethyl)-N-(β-3,4-dimethoxyphenethyl)aminocarbonyl]butoxy}carbostyril] | 100% | 73.2% | 28.8% | 82.6% | 29.2% | > 1000 mg/kg | –
O=C1CCc2cc(OCCCC(=O)N3CCN(C4CCCCC4)CC3)ccc2N1 [No. 18, 6-[3-(4-Cyclohexyl-1-piperazinylcarbonyl)propoxy]-3,4-dihydrocarbostyril] | 100% | 42.1% | 7% | 45.6% | 15.2% | > 1000 mg/kg | –
O=C1CCc2cc(OCCCC(=O)N(C3CCCCC3)C3CCCCC3Cl)ccc2N1 (centres unmarked) [No. 30, 6-{3-[N--Cyclohexyl-N--(2-chlorocyclohexyl)-aminocarbonyl]propoxy}-3,4-dihydrocarbostyril, reference compound] | – | – | – | – | – | – | Inhibition effect on ADP-induced aggregation [1, 3]: 89.8%; Inhibition effect on ADP-induced aggregation [1, 4]: 82.9%; Inhibition effect on ADP-induced aggregation [1, 5]: 38.4%; Inhibition effect on collagen-induced aggregation [2, 3]: 91.5%; Inhibition effect on collagen-induced aggregation [2, 4]: 89.9%; Inhibition effect on collagen-induced aggregation [2, 5]: 50.3%
O=C1CCc2cc(OCCCCC(=O)N(CCO)Cc3ccccc3)ccc2N1 [No. 22, 6-{4-[N-(2-Hydroxyethyl)-N-benzylaminocarbonyl]butoxy}-3,4-dihydrocarbostyril] | 100% | 63.2% | 28.8% | 49.2% | 16.1% | > 1000 mg/kg | –
O=C1CCc2cc(OCC(=O)N3CCOCC3)ccc2N1 [No. 65, 6-(Morpholinocarbonylmethoxy)-3,4-dihydrocarbostyril, reference compound] | 13% | 6% | 0% | 0% | 0% | – | inhibition at 100 µM [2, 3]: 5%
O=C1CCc2cc(OCCCCC(=O)N(CCO)CC3CCCCO3)ccc2N1 (centres unmarked) [No. 13, 6-{4-[N-(2-Hydroxyethyl)-N-(2-tetrahydropyranylmethyl)aminocarbonyl]butoxy}-3,4-dihydrocarbostyril] | 100% | 30.1% | 5.3% | 81.7% | 5.2% | > 1000 mg/kg | –
CN(Cc1cccs1)C(=O)CCCOc1ccc2[nH]c(=O)ccc2c1 [No. 5, 6-{3-[N-Methyl-N-(2-thienylmethyl)aminocarbonyl]propoxy}carbostyril] | 100% | 54.7% | 7.1% | 30.7% | – | > 1000 mg/kg | inhibition at 100 µM [2, 3]: 85.7%
CC(=O)OCCCN(CC1CCCCO1)C(=O)CCCCOc1ccc2c(c1)CCC(=O)N2 (centres unmarked) [No. 21, 6-{4-[N-(3-Acetyloxypropyl)-N-(2-tetrahydropyranylmethyl)aminocarbonyl]butoxy}-3,4-dihydrocarbostyril] | 100% | 60.6% | 18.6% | 82.9% | 34.2% | > 1000 mg/kg | –
O=C(CCCOc1ccc2[nH]c(=O)ccc2c1)N(CCO)C1CCCC(O)C1 (centres unmarked) [No. 19, 6-{3-[N-(2-Hydroxyethyl)-N-(3-hydroxycyclohexyl)aminocarbonyl]propoxy}carbostyril] | 100% | 63.2% | 12% | 95.3% | 47.5% | > 1000 mg/kg | –
CCC(O)CN(CC1CCCCC1)C(=O)CCCCOc1ccc2c(c1)CCC(=O)N2 (centres unmarked) [No. 7, 6-{4-[N-(2-Hydroxybutyl)-N-cyclohexylmethylaminocarbonyl]butoxy}-3,4-dihydrocarbostyril] | 100% | 64.3% | 18.6% | 100% | 13.3% | > 1000 mg/kg | –
O=C(CCCOc1ccc2[nH]c(=O)ccc2c1)N1CCC(c2ccccc2)CC1 [No. 16, 6-[3-(4-Phenyl-1-piperidylcarbonyl)propoxy]carbostyril] | 100% | 27.9% | 4.9% | 40.8% | 7.7% | > 1000 mg/kg | –
